Here are results for one compound from patent publication US11311504B2 (priority 2012, dated 2022).

This experiment relates to rat. The following applies: in vivo.

As to `CC(=O)Nc1ccc(O)cc1` [Paracetamol], the “timepoint of peak effect” value was 120 min p. appl.
